Reference: patent US20110262442A1, “COMPOSITIONS FOR TREATING CNS DISORDERS” (Adenios, Inc., priority 2009, published 2011)

Tests used:
hCMEC/D3 cells [1] = test: Jurkat cell migration across hCMEC/D3-seeded Transwell (in vitro BBB); assay type: cell-based, human; details: hCMEC/D3 on Transwell, migrated cells counted after 24 hours
Description: The blood brain barrier (“BBB”) is comprised of endothelial cells. During late stages of EAE, lymphocytes are known to cross the BBB. In order to determine if adenosine receptor stimulation of brain endothelial cells could promote lymphocyte migration through the BBB, an in vitro BBB was established. The human brain endothelial cell line hCMEC/D3 (Weksler et al., “Blood-brain Barrier-specific Properties of a Human Adult Brain Endothelial Cell Line,” […] (2005); Poller et al., “The Human Brain Endothelial Cell Line hCMEC/D3 as a Human Blood-brain Barrier Model for Drug Transport Studies,” J. Neurochem. 107(5):1358-1368 (2008), which are hereby incorporated by reference in their entirety) was obtained, which has been previously described as having BBB properties.
hCMEC/D3 cells were seeded onto Transwell and allowed to grow to confluencey. 2×10^6 Jurkat cells were added to the upper chamber with or without NECA (general adenosine receptor [AR] agonist), CCPA (A1 AR agonist), CGS 21860 (A2A AR agonist), or DMSO vehicle. After 24 hours, migrated cells in the lower chamber were counted. Values are relative to the number of cells that migrate through non-HCMECD3 seeded transwells.

Z310 cells = test: Jurkat cell migration across Z310-seeded Transwell (choroid plexus); assay type: cell-based, murine; details: Z310 cells on Transwell, migrated cells counted after 24 hours, n=1
Procedure: The choroid plexus (“CP”) controls lymphocyte migration into the CNS. The CP expresses the A1 and A2A adenosine receptors. EAE is prevented in mice when A2A adenosine receptor activity is blocked. EAE is enhanced when the A1 adenosine receptor is missing. It was hypothesized that A2A adenosine receptor activation promotes lymphocyte migration across the CP. Z310 cells are a murine choroid plexus cell line. To test the hypothesis, Transwell membranes were seeded with Z310 cells and allowed to grow to confluencey. 2×10^6 Jurkat cells were added to the upper chamber with or with out NECA (n=1, general AR agonist), CCPA (n=1, AAR agonist), CGS 21860 (n=1, A2AAR agonist), or DMSO vehicle (n=1). After 24 hours, migrated cells in the lower chamber were counted. Values are relative to the number of cells that migrate through non-Z310 seeded transwells and the results are shown in FIG. 12.

hCMEC/D3 cells [2] = test: cAMP levels in human brain endothelial cells (cAMP Screen kit); assay type: cell-based; details: 15 minutes treatment, various concentrations (CCPA: at high levels)
Procedure: Adenosine receptor activation regulates cAMP levels in cells. In order to determine the sensitivity of human brain endothelial cells to adenosine receptor induced cAMP regulation, human brain endothelial cells were cultured with adenosine receptor agonists at various concentrations, followed by cAMP level analysis, as shown in FIG. 13.
HCMECD3 cells were grown to confluencey on 24 well plates. As adenosine receptor (“AR”) stimulation is known to influence cAMP levels, cells were treated with or without various concentrations of NECA (general AR agonist), CCPA (A1 AR agonist), CGS 21860 (A2A AR agonist), DMSO vehicle, or Forksolin (induces cAMP). After 15 minutes, lysis buffer was added and the cells were frozen at −80 C to stop the reaction. Duplicate samples were used for each condition. cAMP levels were assayed using a cAMP Screen kit (Applied Biosystems, Foster City, Calif.).

blood brain barrier [3] = test: Fluorimetric analysis of labeled dextrans in brain after i.v. drug administration; assay type: in vivo, mice; details: wild type mice, 10,000 Da FITC-dextran; for dextran entry into the CNS compared to NECA administration: 3 h after i.v. administration; for dextran entry into the CNS compared to vehicle treatment: 3 h after i.v. co-administration
Procedure: C57BL/6 mice from Jackson Laboratories were used as wild types. All mice used were aged 7-9 weeks and weighed between 20-25 g. All rats were aged 8 weeks and weighed 200-220 g. Mice and rats were bred and housed under specific pathogen-free conditions.
The adenosine receptor agonists NECA, CCPA and CGS 21860 were purchased from Tocris. Each was dissolved in DMSO then diluted in PBS to the desired concentration; in most cases final DMSO concentrations were <0.5% (vol/vol). For vehicle controls, DMSO was diluted in PBS to the same concentration. Dehydrated dextrans labeled with either FITC or Texas Red were purchased from Invitrogen and re-suspended in PBS to 10 mg ml^−1. All experiments involving dextran injection used 0.5 mg dextran in PBS. In experiments where drug and dextran were injected concomitantly, 0.5 mg of dextran was mixed with the drug to the desired concentration in a final volume of 200 μl. All injections were retro-orbital i.v. with a 27-gauge needle. In the SCH 58261 experiment, groups were administered vehicle or SCH 58261 for 4 d. Vehicle/drug and dextrans were injected on day 5 and tissues were collected 3 h after vehicle/drug administration. In Lexiscan experiments, Lexiscan was administered i.v. with 3 injections, 5 min apart and tissues were collected at 15 min unless otherwise indicated.
In dose-response experiments and experiments with the A1 AR and A2A AR knock-out mice, drugs and dextrans were injected concomitantly. After 3 h, the mice were anesthetized with ketamine/xylazine and subjected to a nose cone containing isoflurane. They were perfused with 25-50 ml ice-cold PBS through the left ventricle of the heart then decapitated. Their brains were removed, weighed and frozen for later analysis.
Ice-cold 50 mM Tris-Cl (pH 7.6) was added to frozen brains (100 μl per 100 mg brain) and were to thawed on ice. They were homogenized manually with ˜45 strokes of a dounce homogenizer in plastic 1.5 ml microfuge tubes then spun at 16.1 g in a microfuge for 30 min at room temperature (rt). The supernatants were transferred to new tubes and an equal volume absolute methanol was added. The samples were spun again at 16.1 g for 30 min at rt. Supernatant (200 μl) was transferred to a Corning costar 96 well black polystyrene assay plate (clear bottom). Additionally, a series of standards containing 0.001-10 μg ml^−1 dextran in 50% Tris-Cl/50% absolute methanol (vol/vol) was added to each plate. Absolute concentrations of dextrans were derived from these standard curves. Fluorimetric analysis was performed on a BioTek Synergy 4. FITC-dextran was detected at 488/519 (excitation/emission) and Texas Red-dextran was detected at 592/618.

brain endothelial cells = test: Actin stress fiber induction in brain endothelial cells; assay type: cell-based
Procedure: To test this brain endothelial cells were treated with either CCPA (to agonize A1 adenosine receptors) or […] (to agonize the A2A adenosine receptor).

[4] = test system: Experimental Autoimmune Encephalomyelitis (EAE); test: MOG-induced EAE induction and daily scoring; assay type: in vivo, mice
Description: Cd73^−/− mice have been previously described (Thompson et al., “Crucial Role for Ecto-5′-Nucleotidase (CD73) in Vascular Leakage During Hypoxia,” J. Exp. Med. 200:1395-1405 (2004), which is hereby incorporated by reference in its entirety) and have been backcrossed to C57BL/6 for 14 generations. Cd73 mice have no overt susceptibility to infection and appear normal based on the size and cellular composition of their lymphoid organs and their T and B cell responses in in vivo and in vitro assays (Thompson et al., “Crucial Role for Ecto-5′-Nucleotidase (CD73) in Vascular Leakage During Hypoxia,” J. Exp. Med. 200:1395-1405 (2004), which is hereby incorporated by reference in its entirety). C57BL/6 and tcrα^−/− mice on the C57BL/6 background were purchased from The Jackson Laboratories. Mice were bred and housed under specific pathogen-free conditions at Cornell University or the University of Turku. For adenosine receptor blockade experiments, mice were given drinking water supplemented with 0.6 g/L of caffeine (Sigma) or 2 mg/kg SCH58261 (1 mg/kg s.c. and 1 mg/kg i.p.) in DMSO (45% vol. in PBS) or 45% DMSO alone starting 1 day before EAE induction and continuing throughout the experiment. All procedures performed on mice were approved by the relevant animal review committee.
EAE was induced by subjecting mice to the myelin oligodendrocyte glycoprotein (“MOG”) EAE-inducing regimen as described in Swanborg, “Experimental Autoimmune Encephalomyelitis in Rodents as a Model for Human Demyelinating Disease,” Clin. Immunol. Immunopathol. 77:4-13 (1995) and Bynoe et al., “Epicutaneous Immunization with Autoantigenic Peptides Induces T Suppressor Cells that Prevent Experimental Allergic Encephalomyelitis,” Immunity 19:317-328 (2003), which are hereby incorporated by reference in their entirety. Briefly, a 1:1 emulsion of MOG35-55 peptide (3 mg/ml in PBS) (Invitrogen) and complete Freund's adjuvant (CFA, Sigma) was injected subcutaneously (50 μl) into each flank. Pertussis toxin (PTX, 20 ng) (Biological Laboratories Inc.) was given intravenously (200 μl in PBS) at the time of immunization and again 2 days later. Mice were scored daily for EAE based on disease symptom severity; 0=no disease, 0.5-1=weak/limp tail, 2=limp tail and partial hind limb paralysis, 3=total hind limb paralysis, 4=both hind limb and fore limb paralysis, 5=death. Mice with a score of 4 were euthanized.

blood brain barrier [5] = test: FITC-Dextran extravasation through the brain endothelium (brain sections); assay type: in vivo, mice; details: 10,000 MW FITC Dextran IP, 30 minutes
Procedure: In order to examine the effects of caffeine, a general adenosine receptor antagonist, on blood brain barrier permeability, mice were fed caffeine for several days and then injected with FITC Dextran, commonly used to assess endothelial permeability.
More particularly, mice were fed 0.6 g/l caffeine (Sigma, St. Louis, Mo.) in water or regular water ad lib for five days. Mice were injected IP with FITC Dextran (10,000 MW, Molecular Probes, Eugene, Oreg.) and after 30 minutes mice were perfused with ice cold PBS via the left ventricle. Brains were removed and snap frozen in OCT (Tissue Tek, Torrance, Calif.) and stored at −80° C. until sectioning. Tissue sections (5 μm) were stained with hematoxylin for light microscopy and with DAPI for a fluorescent counterstain.

Molecule: OC[C@H]1O[C@@H](n2cnc3c(NC4CCCC4)nc(Cl)nc32)[C@H](O)[C@@H]1O [CCPA, 2-chloro-N^6-cyclopentyladenosine]
- lymphocyte (Jurkat) migration across the in vitro BBB (hCMEC/D3 cells [1]): induced lymphocyte migration at high levels
- lymphocyte (Jurkat) migration across the CP (Z310 cells): induced lymphocyte migration at high levels
- cAMP levels (hCMEC/D3 cells [2]): increased cAMP levels
- dextran entry into the CNS compared to NECA administration (blood brain barrier [3]): significantly lower than that observed after NECA administration
- dextran entry into the CNS compared to vehicle treatment (blood brain barrier [3]): increased dextran entry into the CNS
- actin stress fibers compared to vehicle alone (brain endothelial cells): induction of actin stress fibers was observed

Molecule: CCNC(=O)[C@H]1O[C@@H](n2cnc3c(N)nc(NCCc4ccc(CCC(=O)O)cc4)nc32)[C@H](O)[C@@H]1O [CGS 21680, 4-[2-[[6-Amino-9-(N-ethyl-b-D-ribofuranuronamidosyl)-9H-purin-2-yl]amino]ethyl]benzenepropanoic acid]
- lymphocyte (Jurkat) migration across the in vitro BBB (hCMEC/D3 cells [1]): promoted lymphocyte migration across the in vitro BBB when used at a lower concentration
- lymphocyte (Jurkat) migration across the CP (Z310 cells): promoted lymphocyte migration across the CP
- cAMP levels (hCMEC/D3 cells [2]): slightly increased cAMP levels
- dextran entry into the CNS compared to NECA administration (blood brain barrier [3]): significantly lower than that observed after NECA administration
- dextran entry into the CNS compared to vehicle treatment (blood brain barrier [3]): increased dextran entry into the CNS

Molecule: Cn1c(=O)c2c(ncn2C)n(C)c1=O [caffeine]
- EAE development ([4]; cd73−/− mice, caffeine 0.6 g/L in drinking water): did not develop EAE
- EAE development ([4]; wild type mice, caffeine 0.6 g/L in drinking water from 1 day prior to and throughout EAE experiment): dramatically protected against EAE development
- FITC-Dextran extravasation across the blood brain barrier (blood brain barrier [5]; CD73−/− mice fed 0.6 g/l caffeine for five days, compared with wild type mice): less FITC-Dextran extravasation
- FITC-Dextran extravasation across the blood brain barrier (blood brain barrier [5]; wild type mice (caffeine feeding experiment), compared with CD73−/− mice): more FITC-dextran extravasation

B1: PEG-ADA: PEGylated adenosine deaminase (protein, UniProt P56658 2-363, looked up)
Adenosine deaminase: AQTPAFNKPKVELHVHLDGAIKPETILYYGRKRGIALPADTPEELQNIIGMDKPLSLPEFLAKFDYYMPAIAGCREAVKRIAYEFVEMKAKDGVVYVEVRYSPHLLANSKVEPIPWNQAEGDLTPDEVVSLVNQGLQEGERDFGVKVRSILCCMRHQPSWSSEVVELCKKYREQTVVAIDLAGDETIEGSSLFPGHVKAYAEAVKSGVHRTVHAGEVGSANVVKEAVDTLKTERLGHGYHTLEDATLYNRLRQENMHFEVCPWSSYLTGAWKPDTEHPVVRFKNDQVNYSLNTDDPLIFKSTLDTDYQMTKNEMGFTEEEFKRLNINAAKSSFLPEDEKKELLDLLYKAYGMPSPASAEQCL
modifications: PEGylated
notes: PEGylated adenosine deaminase
- development of EAE (mean EAE score) ([4]; wild-type mice, 15 units/kg body weight i.p. every 4 days, vs PBS vehicle): inhibits the development of EAE
